Test results from ChEMBL document CHEMBL1201862, “PubChem BioAssay data set” (2004).
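In this assay, cells in 96-well plates receive the compound at five concentrations for 48 hours. Endpoints are linearly interpolated between the surrounding concentrations. At the GI50, growth is halved.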 The source made the active and inactive calls. No stated cut-off is given here; in the data, active = GI50 up to about 1.1 µM and inactive = higher.

Experiments:
Assay in all cases: inhibition of tumour cell growth, NCI panel, 48 h
UACC-257 = system: UACC-257
K562 = system: K562
COLO 205 = system: COLO 205
SK-OV-3 = system: SK-OV-3
A549 = system: A549
SR = system: SR
SF-539 = system: SF-539
SN12C = system: SN12C
SF-295 = system: SF-295
ACHN = system: ACHN
NCI-H23 = system: NCI-H23
HL-60 = system: HL-60
EKVX = system: EKVX
SK-MEL-28 = system: SK-MEL-28
A498 = system: A498
SNB-78 = system: SNB-78
BT-549 = system: BT-549
NCI/ADR-RES = system: NCI/ADR-RES
MDA-N = system: MDA-N
PC-3 = system: PC-3

Row | SMILES | GI50 (UACC-257) | GI50 (K562) | GI50 (COLO 205) | GI50 (SK-OV-3) | GI50 (A549) | GI50 (SR) | GI50 (SF-539) | GI50 (SN12C) | GI50 (SF-295) | GI50 (ACHN) | GI50 (NCI-H23) | GI50 (HL-60) | GI50 (EKVX) | GI50 (SK-MEL-28) | GI50 (A498) | GI50 (SNB-78) | GI50 (BT-549) | GI50 (NCI/ADR-RES) | GI50 (MDA-N) | GI50 (PC-3)
1 | CN(C)CCNC(=O)c1cccc2ccc(-c3ccc(-c4ccccc4)cc3)nc12 | 1.86 µM (inactive) | 2.13 µM (inactive) | 1.6 µM (inactive) | 17 µM (inactive) | 2.89 µM (inactive) | 2.3 µM (inactive) | 1.8 µM (inactive) | 6.59 µM (inactive) | 2.21 µM (inactive) | 5.47 µM (inactive) | 5.69 µM (inactive) | 1.93 µM (inactive) | 8.17 µM (inactive) | 1.76 µM (inactive) | 3.44 µM (inactive) | 14 µM (inactive) | – | – | – | –
2 | CCN(CC)c1ccc(/N=C2/C=CC(=O)c3ncccc32)c(C)c1 | 4.38 µM (inactive) | 2.45 µM (inactive) | 2.18 µM (inactive) | 20 µM (inactive) | 11.2 µM (inactive) | 2.65 µM (inactive) | 5.56 µM (inactive) | 7.38 µM (inactive) | 10.7 µM (inactive) | 3.92 µM (inactive) | 5.94 µM (inactive) | 2.19 µM (inactive) | 16.6 µM (inactive) | 11.8 µM (inactive) | – | 9.55 µM (inactive) | – | – | – | –
3 | [O-][n+]1c2cc(CN3CCOCC3)c(CN3CCOCC3)cc2[n+]([O-])c2c(O)cccc21 | 6.24 µM (inactive) | 2.61 µM (inactive) | 5 µM (inactive) | 4.13 µM (inactive) | – | 0.193 µM (active) | 1.08 µM (active) | 2.87 µM (inactive) | 0.478 µM (active) | 4.07 µM (inactive) | 2.37 µM (inactive) | 0.807 µM (active) | 6.53 µM (inactive) | 14 µM (inactive) | 11 µM (inactive) | 3.18 µM (inactive) | – | – | – | –
4 | COC(=O)NC(=O)c1cn(CCCOC(=O)CCCCCCCCC(=O)OCCCn2cc(C(=O)NC(=O)OC)c(=O)[nH]c2=O)c(=O)[nH]c1=O | > 100 µM (inactive) | > 100 µM (inactive) | – | – | > 100 µM (inactive) | > 100 µM (inactive) | 71.1 µM (inactive) | > 100 µM (inactive) | 47.3 µM (inactive) | > 100 µM (inactive) | 39.3 µM (inactive) | > 100 µM (inactive) | 55.2 µM (inactive) | > 100 µM (inactive) | > 100 µM (inactive) | 78 µM (inactive) | – | – | – | –
5 | CCc1nc2cc(/N=N/c3c(O)ccc4ccccc34)ccc2[nH]1 | 14.5 µM (inactive) | 8.59 µM (inactive) | 21.2 µM (inactive) | 24.7 µM (inactive) | 21.4 µM (inactive) | 2.14 µM (inactive) | 18.1 µM (inactive) | 20.5 µM (inactive) | 20.8 µM (inactive) | 17.1 µM (inactive) | 21.2 µM (inactive) | 2.4 µM (inactive) | 19.1 µM (inactive) | 20.3 µM (inactive) | 21.5 µM (inactive) | 15.5 µM (inactive) | 18.7 µM (inactive) | 22.3 µM (inactive) | 23.8 µM (inactive) | 14.6 µM (inactive)
6 | CCOC(=O)CCn1cnc(N)n1 | > 100 µM (inactive) | > 100 µM (inactive) | > 100 µM (inactive) | > 100 µM (inactive) | > 100 µM (inactive) | > 100 µM (inactive) | > 100 µM (inactive) | > 100 µM (inactive) | > 100 µM (inactive) | > 100 µM (inactive) | > 100 µM (inactive) | > 100 µM (inactive) | > 100 µM (inactive) | > 100 µM (inactive) | – | > 100 µM (inactive) | – | – | – | –
7 | O=C1C=CC=CC2CC=C[C@@H](O)C12 (stereo partly specified) | 14 µM (inactive) | 26.5 µM (inactive) | 19.6 µM (inactive) | 69.7 µM (inactive) | 26.2 µM (inactive) | 18.8 µM (inactive) | 24.5 µM (inactive) | 22.4 µM (inactive) | 20.7 µM (inactive) | 17.3 µM (inactive) | > 10 µM (inactive) | 15.5 µM (inactive) | 24.5 µM (inactive) | – | 15.9 µM (inactive) | 32.4 µM (inactive) | – | – | – | –
8 | CN(CCN(C)C(=O)CCOS(C)(=O)=O)C(=O)CCOS(C)(=O)=O | > 100 µM (inactive) | > 100 µM (inactive) | > 100 µM (inactive) | > 100 µM (inactive) | > 100 µM (inactive) | 15.6 µM (inactive) | 44.1 µM (inactive) | > 100 µM (inactive) | > 100 µM (inactive) | > 100 µM (inactive) | > 100 µM (inactive) | 30.9 µM (inactive) | > 100 µM (inactive) | > 100 µM (inactive) | > 100 µM (inactive) | > 100 µM (inactive) | – | – | – | –
9 | COC(=O)C(=O)CC(=O)CCn1ncc(Cl)c(Cl)c1=O | 15.8 µM (inactive) | 3.56 µM (inactive) | 14.3 µM (inactive) | 31 µM (inactive) | 19.9 µM (inactive) | 2.84 µM (inactive) | 19.6 µM (inactive) | 16.9 µM (inactive) | 13.7 µM (inactive) | 20.1 µM (inactive) | 13.2 µM (inactive) | 3.94 µM (inactive) | 19.5 µM (inactive) | 14 µM (inactive) | 32.8 µM (inactive) | 20.5 µM (inactive) | – | – | – | –
10 | CCN(CC)CCNC(=O)c1ccccc1Nc1c(Cl)cccc1Cl | 15.1 µM (inactive) | > 10 µM (inactive) | 12.9 µM (inactive) | 16.7 µM (inactive) | 17 µM (inactive) | 13 µM (inactive) | 17 µM (inactive) | 13.7 µM (inactive) | – | 17.5 µM (inactive) | 18.2 µM (inactive) | 7.41 µM (inactive) | 12.7 µM (inactive) | 18.3 µM (inactive) | – | 16.4 µM (inactive) | – | – | – | –
11 | CC1=C(C)C(=O)c2c(cc3ccc4ccccc4n23)C1=O | – | > 100 µM (inactive) | > 100 µM (inactive) | > 100 µM (inactive) | > 100 µM (inactive) | > 100 µM (inactive) | > 100 µM (inactive) | > 100 µM (inactive) | > 100 µM (inactive) | > 100 µM (inactive) | > 100 µM (inactive) | > 100 µM (inactive) | > 100 µM (inactive) | > 100 µM (inactive) | > 100 µM (inactive) | > 100 µM (inactive) | – | – | – | –
12 | COc1ccc2c(CCNC(C)=O)c(C(C)=O)[nH]c2c1 | > 100 µM (inactive) | > 100 µM (inactive) | > 100 µM (inactive) | – | > 100 µM (inactive) | > 100 µM (inactive) | > 100 µM (inactive) | > 100 µM (inactive) | > 100 µM (inactive) | > 100 µM (inactive) | > 10 µM (inactive) | > 100 µM (inactive) | > 100 µM (inactive) | > 100 µM (inactive) | > 100 µM (inactive) | > 100 µM (inactive) | – | – | – | –
13 | C/C(CCN(C)C)=N/O | 15.7 µM (inactive) | 0.292 µM (active) | 0.597 µM (active) | 17.9 µM (inactive) | 1.6 µM (inactive) | 0.281 µM (active) | 1.14 µM (inactive) | 14.3 µM (inactive) | 26.8 µM (inactive) | 0.918 µM (active) | 8.32 µM (inactive) | 0.281 µM (active) | 1.55 µM (inactive) | 7.13 µM (inactive) | – | 15.8 µM (inactive) | – | – | – | –
14 | O=C(Nc1c(O)[nH]c(=S)[nH]c1=O)c1ccccc1 | > 100 µM (inactive) | > 100 µM (inactive) | > 100 µM (inactive) | > 100 µM (inactive) | > 100 µM (inactive) | > 100 µM (inactive) | > 100 µM (inactive) | > 100 µM (inactive) | > 100 µM (inactive) | > 100 µM (inactive) | > 100 µM (inactive) | > 100 µM (inactive) | – | > 100 µM (inactive) | > 100 µM (inactive) | > 100 µM (inactive) | – | – | – | –
